Measured values: PubChem BioAssay (NCI)
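These data come from cells grown in 96-well plates and exposed to compound for 48 hours at five concentrations. TGI: total growth inhibition.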

Columns and labels:
Assay in all cases: NCI tumour cell line growth inhibition, 48 h
786-0 renal = test system: 786-0 renal
A498 renal = test system: A498 renal
A549 NSCLC = test system: A549 NSCLC
ACHN renal = test system: ACHN renal
BT-549 breast = test system: BT-549 breast
CAKI-1 renal = test system: CAKI-1 renal
CCRF-CEM leukemia = test system: CCRF-CEM leukemia
COLO 205 colon = test system: COLO 205 colon
DU-145 prostate = test system: DU-145 prostate
EKVX NSCLC = test system: EKVX NSCLC
HCC-2998 colon = test system: HCC-2998 colon
HCT-116 colon = test system: HCT-116 colon
HCT-15 colon = test system: HCT-15 colon
HL-60(TB) leukemia = test system: HL-60(TB) leukemia
HOP-62 NSCLC = test system: HOP-62 NSCLC
HOP-92 NSCLC = test system: HOP-92 NSCLC
HS 578T breast = test system: HS 578T breast
HT29 colon = test system: HT29 colon
IGROV1 ovarian = test system: IGROV1 ovarian
K-562 leukemia = test system: K-562 leukemia
KM12 colon = test system: KM12 colon
LOX IMVI melanoma = test system: LOX IMVI melanoma
M14 melanoma = test system: M14 melanoma
MALME-3M melanoma = test system: MALME-3M melanoma
MCF7 breast = test system: MCF7 breast
MDA-MB-231 breast = test system: MDA-MB-231 breast
MDA-MB-435 = test system: MDA-MB-435
MDA-N = test system: MDA-N
MOLT-4 leukemia = test system: MOLT-4 leukemia
NCI-H226 lung = test system: NCI-H226 lung
NCI-H23 lung = test system: NCI-H23 lung
NCI-H460 lung = test system: NCI-H460 lung
NCI-H522 lung = test system: NCI-H522 lung
NCI/ADR-RES ovarian = test system: NCI/ADR-RES ovarian
OVCAR-3 ovarian = test system: OVCAR-3 ovarian
OVCAR-4 ovarian = test system: OVCAR-4 ovarian
OVCAR-5 ovarian = test system: OVCAR-5 ovarian
OVCAR-8 ovarian = test system: OVCAR-8 ovarian
PC-3 prostate = test system: PC-3 prostate
RPMI-8226 leukemia = test system: RPMI-8226 leukemia
RXF 393 renal = test system: RXF 393 renal
SF-268 CNS = test system: SF-268 CNS
SF-295 CNS = test system: SF-295 CNS
SF-539 CNS = test system: SF-539 CNS
SK-MEL-2 melanoma = test system: SK-MEL-2 melanoma
SK-MEL-28 melanoma = test system: SK-MEL-28 melanoma
SK-MEL-5 melanoma = test system: SK-MEL-5 melanoma
SK-OV-3 ovarian = test system: SK-OV-3 ovarian
SN12C renal = test system: SN12C renal
SNB-19 CNS = test system: SNB-19 CNS
SNB-75 CNS = test system: SNB-75 CNS
SR leukemia = test system: SR leukemia
SW-620 colon = test system: SW-620 colon
T-47D breast = test system: T-47D breast
TK-10 renal = test system: TK-10 renal
U251 CNS = test system: U251 CNS
UACC-257 melanoma = test system: UACC-257 melanoma
UACC-62 melanoma = test system: UACC-62 melanoma
UO-31 renal = test system: UO-31 renal

SMILES: CCOC(=O)/C=C(/C(=O)OCC)n1ccc(=O)n(/C(=C/C(=O)OCC)C(=O)OCC)c1=O
- TGI (786-0 renal): 5.86 µM
- TGI (A498 renal): 38.8 µM
- TGI (A549 NSCLC): 32.7 µM
- TGI (ACHN renal): 8.06 µM
- TGI (BT-549 breast): 30.2 µM
- TGI (CAKI-1 renal): 3.23 µM
- TGI (CCRF-CEM leukemia): 3.53 µM
- TGI (COLO 205 colon): 3.79 µM
- TGI (DU-145 prostate): 34.9 µM
- TGI (EKVX NSCLC): 36 µM
- TGI (HCC-2998 colon): 35 µM
- TGI (HCT-116 colon): 6.88 µM
- TGI (HCT-15 colon): 6.32 µM
- TGI (HL-60(TB) leukemia): 2.91 µM
- TGI (HOP-62 NSCLC): 46.9 µM
- TGI (HOP-92 NSCLC): 4.11 µM
- TGI (HS 578T breast): 45.5 µM
- TGI (HT29 colon): 26.8 µM
- TGI (IGROV1 ovarian): 31.4 µM
- TGI (K-562 leukemia): 10.3 µM
- TGI (KM12 colon): 33.9 µM
- TGI (LOX IMVI melanoma): 10.5 µM
- TGI (M14 melanoma): 10.6 µM
- TGI (MALME-3M melanoma): 8.15 µM
- TGI (MCF7 breast): 19.9 µM
- TGI (MDA-MB-231 breast): 31.9 µM
- TGI (MDA-MB-435): 22.1 µM
- TGI (MDA-N): 26.7 µM
- TGI (MOLT-4 leukemia): 3.84 µM
- TGI (NCI-H226 lung): 18.9 µM
- TGI (NCI-H23 lung): 42.7 µM
- TGI (NCI-H460 lung): 34.3 µM
- TGI (NCI-H522 lung): 3.53 µM
- TGI (NCI/ADR-RES ovarian): 55.3 µM
- TGI (OVCAR-3 ovarian): 16.9 µM
- TGI (OVCAR-4 ovarian): 30.6 µM
- TGI (OVCAR-5 ovarian): 31.2 µM
- TGI (OVCAR-8 ovarian): 23.2 µM
- TGI (PC-3 prostate): 29 µM
- TGI (RPMI-8226 leukemia): 7.08 µM
- TGI (RXF 393 renal): 9.62 µM
- TGI (SF-268 CNS): 43.9 µM
- TGI (SF-295 CNS): 55.1 µM
- TGI (SF-539 CNS): 34.2 µM
- TGI (SK-MEL-2 melanoma): 17.6 µM
- TGI (SK-MEL-28 melanoma): 27.9 µM
- TGI (SK-MEL-5 melanoma): 28.6 µM
- TGI (SK-OV-3 ovarian): 43.7 µM
- TGI (SN12C renal): 17.9 µM
- TGI (SNB-19 CNS): 38.3 µM
- TGI (SNB-75 CNS): 32.6 µM
- TGI (SR leukemia): 13.5 µM
- TGI (SW-620 colon): 4.07 µM
- TGI (T-47D breast): 15.9 µM
- TGI (TK-10 renal): 17.6 µM
- TGI (U251 CNS): 29.4 µM
- TGI (UACC-257 melanoma): 24.5 µM
- TGI (UACC-62 melanoma): 28.3 µM
- TGI (UO-31 renal): 28.9 µM
